The record followed here is patent publication US20090239841A1, “Diaryl Ureas as CB1 Antagonists” (priority 2004, published 2009).

pIC50: −log10 of the molar value. Read-outs that look alike come from different tables or passages of the source. Where only a bound is given, the exact number is not on record here.

The target in this assay is T1, hCB1 (Homo sapiens, UniProt P21554).
T1 construct: made in house; host or cells: Sf9 insect cells (baculovirus), P2 membranes
The experiment in a line: Agonist-induced GTP binding (GTPγ35S) assay at CB1, Example 8. It counts as biochemical. Particulars: read-out: IC50. In outline: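 Antagonism read as inhibition of 1 nM CP55,940-stimulated GTPγ35S ([…]) binding, compounds at 10^−10 to 10^−5 M. Baculovirus-infected Sf9 membranes bearing hCB1 plus G-protein subunits, 60 min room-temperature incubation with 5 μM GDP. Filtration and scintillation counting; data as percent over basal.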

Where [1] appears, read: IC50 at CB1, determined as described in Example 8.
[2] abbreviates: Table II, IC50 at CB1, GTP binding with 1 nM CP55,940.

T1 sequence (P21554 whole entry): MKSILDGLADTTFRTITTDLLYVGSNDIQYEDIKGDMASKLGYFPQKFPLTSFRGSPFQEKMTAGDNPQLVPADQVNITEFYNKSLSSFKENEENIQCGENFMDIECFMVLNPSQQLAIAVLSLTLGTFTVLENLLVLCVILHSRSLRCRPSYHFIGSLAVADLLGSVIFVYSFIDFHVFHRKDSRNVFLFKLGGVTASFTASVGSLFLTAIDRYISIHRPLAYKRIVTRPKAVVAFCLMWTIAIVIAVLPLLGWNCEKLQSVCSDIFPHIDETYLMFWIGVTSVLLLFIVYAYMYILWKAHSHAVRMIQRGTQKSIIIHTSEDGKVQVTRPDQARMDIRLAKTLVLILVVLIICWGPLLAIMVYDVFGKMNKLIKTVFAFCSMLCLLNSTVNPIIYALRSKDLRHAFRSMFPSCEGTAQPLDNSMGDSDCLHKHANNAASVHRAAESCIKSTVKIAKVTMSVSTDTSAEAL

One may read the pIC50 as the negative decadic logarithm of the IC50, by convention in mol/L. Take `CCCc1ccc(NC(=O)Nc2ccc(C)cc2)cc1` [Compound 293, N-(4-methylphenyl)-N′-(4-propylphenyl)urea]: the pIC50 under setting [1] was greater than 5.70.
In the case of `Cc1ccc(NC(=O)Nc2ccc(OC(C)C)cc2)cc1` [Compound 214, N-(4-isopropoxyphenyl)-N′-(4-methylphenyl)urea], the pIC50 under setting [2] is greater than 5.70.
For `O=C(Nc1ccc(F)cc1)Nc1cccc(OC(F)F)c1` [Compound 372, 1-[3-(difluoromethoxy)phenyl]-3-(4-fluorophenyl)urea], the pIC50 under setting [1] is greater than 5.70.
In the case of `CC(=O)c1ccc(NC(=O)Nc2ccc(C)cc2)cc1` [Compound 187, N-(4-acetylphenyl)-N′-(4-methylphenyl)urea], the pIC50 under setting [2] is greater than 5.70.
Consider `CC(=O)c1cccc(NC(=O)Nc2cccc(OC(F)F)c2)c1` [Compound 425, 1-(3-acetylphenyl)-3-[3-(difluoromethoxy)phenyl]urea], for which, under setting [1], the negative logarithm of the IC50 (pIC50) is greater than 5.70.
In the case of `CCOC(=O)c1cccc(NC(=O)Nc2ccc(CC#N)cc2)c1` [Compound 714, ethyl 3-[({[4-(cyanomethyl)phenyl]amino}carbonyl)amino)benzoate], under setting [1], the pIC50 is greater than 5.70.
On the same count and under the same terms, the value for `CCOC(=O)c1ccc(NC(=O)Nc2cccc(OC(C)C)c2)cc1` [Compound 673, ethyl 4-({[(3-isopropoxyphenyl)amino]carbonyl}amino)benzoate] was greater than 5.70.
Take `N#Cc1cc(NC(=O)Nc2ccc(OC(F)F)cc2)ccc1F` [Compound 139, N-(3-cyano-4-fluorophenyl)-N′-[4-(difluoromethoxy)phenyl]urea]: the pIC50 under setting [2] is greater than 5.70.
Take `CC(C)Oc1cccc(NC(=O)Nc2ccc(F)cc2)c1` [Compound 364, 1-(4-fluorophenyl)-3-(3-isopropoxyphenyl)urea]: the negative-log IC50 (pIC50) under setting [1] is greater than 5.70.
In the case of `Cc1cccc(NC(=O)Nc2ccc(OC(F)F)cc2)n1` [Compound 633, 1-[4-(difluoromethoxy)phenyl]-3-(6-methylpyridin-2-yl)urea], the negative logarithm of the IC50 (pIC50) under setting [1] is greater than 5.70.
As for `CC(C)Oc1ccc(NC(=O)Nc2cccc(C#N)c2)cc1` [Compound 280, N-(3-cyanophenyl)-N′-(4-isopropoxyphenyl)urea], the negative logarithm of the IC50 (pIC50) under setting [2] was greater than 5.70.
With `CCCc1ccc(NC(=O)Nc2ccc(F)cc2)cc1` [Compound 328, 1-(4-fluorophenyl)-3-(4-propylphenyl)urea], the negative-log IC50 (pIC50) under setting [1] is greater than 5.70.
Same read-out and setting: the same measure for `CCCOc1ccc(NC(=O)Nc2cccc(CC)c2)cc1` [Compound 396, 1-(3-ethylphenyl)-3-(4-propoxyphenyl)urea]: greater than 5.70; for `Cc1ccccc1NC(=O)Nc1cccc(OC(F)F)c1` [Compound 377, 1-[3-(difluoromethoxy)phenyl]-3-(2-methylphenyl)urea]: greater than 5.70; for `CCOC(=O)c1ccc(NC(=O)Nc2ccc(OCC#N)cc2)cc1` [Compound 719, ethyl 4-[({[4-(cyanomethoxy)phenyl]amino}carbonyl)amino]benzoate]: greater than 5.70.
In the case of `CCCc1ccc(NC(=O)Nc2cccc(C)c2)cc1` [Compound 154, N-(3-methylphenyl)-N′-(4-propylphenyl)urea], under setting [2], the pIC50 was greater than 5.70.
With `Cc1cccc(NC(=O)Nc2ccc(N3CCOCC3)c(Cl)c2)c1` [Compound 318, 1-(3-chloro-4-morpholin-4-ylphenyl)-3-(3-methylphenyl)urea], the pIC50 under setting [1] is greater than 5.70.
`COc1ccc(NC(=O)Nc2ccc(C)c(F)c2)cc1` [Compound 615, 1-(3-fluoro-4-methylphenyl)-3-(4-methoxyphenyl)urea]: the pIC50 under setting [1] is greater than 5.70.
As to `N#Cc1ccc(NC(=O)Nc2cccc(OC(F)F)c2)cc1` [Compound 283, N-(4-cyanophenyl)-N′-[3-(difluoromethoxy)phenyl]urea], the negative logarithm of the IC50 (pIC50) under setting [2] is greater than 5.70.
Turning to `CCOc1cccc(NC(=O)Nc2ccccc2)c1` [Compound 222, N-(3-ethoxyphenyl)-N′-phenylurea], the pIC50 under setting [2] was greater than 5.70.
Regarding `CCc1cccc(NC(=O)Nc2ccc(OC(F)F)cc2)c1` [Compound 11, N-[4-(difluoromethoxy)phenyl]-N′-(3-ethylphenyl)urea], the pIC50 (Table I, IC50 at CB1, GTP binding with 1 nM CP55,940) is greater than 5.70.
